Reference: patent US20240368163A1, “COMPOUNDS AND METHODS FOR MODULATING SPLICING” (REMIX THERAPEUTICS INC., priority 2021, published 2024)

What was measured:
Format in all cases: cell-based, human
MYB [1] = experiment: Splicing RT-qPCR assay, MYB mRNA canonical junction (CJ) and alternative junction (AJ); settings: Homo sapiens; for AC50: increase in AJ mRNA
Procedure, shortened: (§1)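 Cells: A673 (DMEM/10% FBS) or K562 (IMDM/10% FBS). Dose: 11-pt 3-fold, top 10 uM final, ≤0.25% DMSO, 24 h, 37 °C. Readout: RT-qPCR of CJ/AJ exon junctions, ΔΔCt vs housekeeper and DMSO, RQ to % response.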

HTT [2] = experiment: Splicing RT-qPCR assay, HTT mRNA canonical junction (CJ) and alternative junction (AJ); settings: Homo sapiens; for AC50: increase in AJ mRNA
Procedure, shortened: as §1

MYB [3] = experiment: HiBiT protein abundance assay, MYB; settings: Homo sapiens, K562, 24 h, Table 13A, modified K562 cells
Procedure, shortened: (§2)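 Protein abundance measured by Nano-Glo HiBiT lytic luminescence after 24 h compound exposure of modified K562 lines, 10000 cells/well, top final dose 10 μM in 3-fold steps. Four-parameter fit of control-normalised response gives concentration reducing abundance to 50% of untreated.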

SMN2 = experiment: Splicing RT-qPCR panel, SMN2 canonical junction (CJ) mRNA; settings: Homo sapiens, RT-qPCR panel, canonical junction mRNA; compound concentration having 50% response in CJ decrease; read-out: SMN2 IC50 (decrease in CJ mRNA levels)
Procedure, shortened: as §1

HTT [4] = experiment: HiBiT protein abundance assay, HTT; settings: Homo sapiens, K562, 24 h, Table 13A, modified K562 cells
Procedure, shortened: as §2

Target C [5] = experiment: HiBiT protein abundance assay, Target C; settings: Homo sapiens, K562, 24 h, Table 13A, modified K562 cells
Procedure, shortened: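 Target protein levels in engineered HiBiT-tagged cells were read by lytic luminescence after 24 h compound exposure (10000 cells/well, 10 μM top final, 3-fold steps, ≤0.25% DMSO). Unmodified K562 served as baseline; four-parameter regression gave concentration reducing abundance to 50%.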

Target C [6] = experiment: Splicing RT-qPCR panel, Target C canonical junction (CJ) mRNA; settings: Homo sapiens, RT-qPCR panel, canonical junction mRNA; compound concentration having 50% response in CJ decrease; read-out: Target C IC50 (decrease in CJ mRNA levels)
Procedure, shortened: as §1

[7] = 24 h, decrease in CJ mRNA, A673 or K562 cells, 24 hours treatment, RT-qPCR, read-out: MYB CJ IC50
[8] = 24 h, A673 or K562 cells, 24 hours treatment, RT-qPCR
[9] = RT-qPCR panel, canonical junction mRNA, compound concentration having 50% response in CJ decrease, read-out: MYB IC50 (decrease in CJ mRNA levels)
[10] = 24 h, decrease in CJ mRNA, A673 or K562 cells, 24 hours treatment, RT-qPCR, read-out: HTT CJ IC50
[11] = RT-qPCR panel, canonical junction mRNA, compound concentration having 50% response in CJ decrease, read-out: HTT IC50 (decrease in CJ mRNA levels)

Row | Structure (SMILES) | IC50 (MYB [1]; [7]) [µM] | AC50 (MYB [1]; [8]) [µM] | IC50 (MYB [1]; [9]) [µM] | IC50 (HTT [2]; [10]) [µM] | AC50 (HTT [2]; [8]) [µM] | IC50 (HTT [2]; [11]) [µM] | IC50 (MYB [3]) [µM] | IC50 (SMN2) [µM] | IC50 (HTT [4]) [µM] | IC50 (Target C [5]) [µM] | IC50 (Target C [6]) [µM]
1 | CC(C)(C)NC1CCN(c2ccc(-c3ccc(-c4cn[nH]c4)c4cn[nH]c34)nn2)C1 (stereo not shown) [Compound 305] | 1 to 10 | 1 to 10 | 1 to 10 | 0.1 to 1 | 0.1 to 1 | 0.1 to 1 | 0.1 to 1 | < 0.1 | 0.1 to 1 | 1 to 10 | 1 to 10
2 | c1n[nH]cc1-c1ccc(-c2ccc(N3CCC(NC4CC4)C3)nn2)c2[nH]ncc12 (stereo not shown) [Compound 306] | > 10 | > 10 | > 10 | > 10 | 1 to 10 | > 10 | 1 to 10 | 0.1 to 1 | 1 to 10 | > 10 | > 10
3 | CC(C)(C)NC1CCN(c2ccc(-c3ccc(-n4cccn4)c4cn[nH]c34)nn2)C1 (stereo not shown) [Compound 310] | 1 to 10 | > 10 | 1 to 10 | 1 to 10 | 1 to 10 | 1 to 10 | 1 to 10 | 0.1 to 1 | 1 to 10 | 1 to 10 | > 10
4 | CN(c1ccc(-c2ccc(-c3cnn(C4CC4)n3)c3cn[nH]c23)nn1)[C@@H]1C[C@H]2CC[C@@H](C1)N2 [Compound 312, (1R,3s,5S)-N-(6-(4-(2-cyclopropyl-2H-1,2,3-triazol-4-yl)-1H-indazol-7-yl)pyridazin-3-yl)-N-methyl-8-azabicyclo[3.2.1]octan-3-amine] | 1 to 10 | 0.1 to 1 | 1 to 10 | 1 to 10 | 1 to 10 | 1 to 10 | 0.1 to 1 | 0.1 to 1 | 0.1 to 1 | 1 to 10 | 1 to 10
5 | CN(c1ccc(-c2ccc(-c3cnn(C)n3)c3cn[nH]c23)nn1)C1CCNCC1 [Compound 315, N-methyl-6-[4-(2-methyl-1,2,3-triazol-4-yl)-1H-indazol-7-yl]-N-(piperidin-4-yl)pyridazin-3-amine] | 1 to 10 | 1 to 10 | 1 to 10 | 1 to 10 | 1 to 10 | 1 to 10 | 0.1 to 1 | 0.1 to 1 | 0.1 to 1 | > 10 | > 10
6 | Cn1ncc(-c2ccc(-c3ccc(OC4CC(C)(C)NC(C)(C)C4)nn3)c3[nH]ncc23)n1 [Compound 316] | 0.1 to 1 | 0.1 to 1 | 0.1 to 1 | 0.1 to 1 | 0.1 to 1 | 0.1 to 1 | 0.1 to 1 | < 0.1 | 0.1 to 1 | 0.1 to 1 | 1 to 10
7 | CCn1ncc(-c2ccc(-c3ccc(N(C)[C@@H]4C[C@H]5CC[C@@H](C4)N5)nn3)c3[nH]ncc23)n1 [Compound 317, N-{6-[4-(2-ethyl-1,2,3-triazol-4-yl)-1H-indazol-7-yl]pyridazin-3-yl}-N-methyl-8-azabicyclo[3.2.1]octan-3-amine] | 0.1 to 1 | 0.1 to 1 | 0.1 to 1 | 0.1 to 1 | 0.1 to 1 | 0.1 to 1 | 0.1 to 1 | 1 to 10 | 0.1 to 1 | 0.1 to 1 | 1 to 10
8 | CN(c1ccc(-c2ccc(-c3cnn(CC4CC4)n3)c3cn[nH]c23)nn1)[C@@H]1C[C@H]2CC[C@@H](C1)N2 [Compound 318, N-(6-{4-[2-(cyclopropylmethyl)-1,2,3-triazol-4-yl]-1H-indazol-7-yl}pyridazin-3-yl)-N-methyl-8-azabicyclo[3.2.1]octan-3-amine] | 1 to 10 | 1 to 10 | 1 to 10 | 1 to 10 | 1 to 10 | 1 to 10 | 1 to 10 | 1 to 10 | 1 to 10 | 1 to 10 | 1 to 10
